Format in all cases: cell-based
The test system of test [1] is M. tuberculosis H37Ra. Nature of the test: Resuscitation of 6 month old culture by phospholipids, CFU on 7H11 agar. As to conditions: for CFU/ml: 4 μg/ml, 6 month old cells, 7H11 agar, 3 weeks. The procedure:
M. tuberculosis H37Ra cultures were grown in 7H9 medium containing Tween 80 (0.05%) and ADC (albumin-dextrose-catalase) enrichment at 37° C. for various periods of time as standing batch cultures. Cultures of varying age up to one year were used for the resuscitation experiments. Resuscitation of dormant M. tuberculosis by phosphatidylserine was performed as follows. A 6 month old M. tuberculosis H37Ra culture was washed and resuspended in 7H9 medium followed by plating at different dilutions on 7H11 agar plates containing 4 μg/ml phosphatidylserine (derived from bovine brain, containing a mixture of two unknown fatty acyl groups, Sigma Chemical Co.) or phosphatidylserine dioleoyl. The plates were incubated at 37° C. for 3 weeks when the CFU was determined. Data represent average of duplicate samples.
To confirm that a phospholipid was responsible for activity, we first tested commercially available phosphatidyl-L-serine and a dioleoyl phosphatidyl-L-serine, both of which are precursor of phosphatidylethanolamine and phosphatidylcholine, for resuscitation activity for the 6 month old M. tuberculosis H37Ra cells. Both compounds had significant resuscitation activity over medium control as judged by colony forming units (CFU) assay. Phosphatidyl-L-serine and a dioleoyl phosphatidyl-L-serine at 4 μg/ml gave 1.2×10^7, 2×10^6 CFU/ml, respectively, whereas the medium control produced 3×10^4 CFU/ml.

Test [2] relates to M. tuberculosis H37Ra. Nature of the test: Growth of small inocula of fresh 4-week-old culture with phosphatidylserine. As to conditions: 5 μg/ml in Sauton's medium, 20 days. The procedure: It is well known that to initiate growth of M. tuberculosis in liquid culture a large inoculum is required (Dubos and Davis, 1946). In a separate experiment involving a fresh 4-week-old M. tuberculosis H37Ra culture, the culture was serially diluted into Sauton's medium (1 ml) alone or into medium containing 5 μg/ml phosphatidylserine at 10^−2, 10^−3, 10^−4, 10^−5, 10^−6, 10^−7 dilutions. The cultures were incubated at 37° C. for 20 days when the visible growth was assessed and the cultures were plated on 7H11 plates, which were incubated at 37° C. for 3 weeks. Phosphatidyl-L-serine allowed small inocula (10^−7 dilution) to form visible growth and CFU on plates, whereas the control culture grew only at 10^−5 dilution.

The subject of test [3] is M. tuberculosis H37Ra. As to conditions: 7-month-old culture.
The test system of test [4] is M. tuberculosis H37Ra. As to conditions: 4 week old culture.
Test [5] relates to M. tuberculosis H37Ra. As to conditions: 7-month-old culture. The source holds these as a separate data set.
Test [6] has as its system M. tuberculosis H37Ra. As to conditions: 7-month-old culture. The source holds these as a separate data set.

Where two headings read alike, the source gives them in different places.

With “phosphatidylglycerol-oleoyl-palmitoyl [reference compound]”, the “resuscitation and growth enhancing activity” value in test [1] (compared with phosphatidylserine) is on record as “did not have significant activity”.
As to phosphatidyl-L-serine, the CFU/ml in test [1] was 1.2×10^7 CFU/ml. The “small inocula (dilution) forming visible growth and CFU on plates” value in test [2] is on record as 10^−7.
As for “NH2-AQLQAVPGAAQYIGLVESVAGSCNNY-OH (H-AQLQAVPGAAQYIGLVESVAGSCNNY-OH; listed as Mycobacterium tuberculosis) [Peptide P4, residues 85-110]”, the “MTT data (OD readings at 570 nm)” value in test [3] (day 0) is given as 0.2248 OD; in test [3] (day 5), 0.6287 OD; in test [3] (day 10) it was 1.4131 OD. In addition, the CFU values in test [4] (day 3) was determined as 2e+06 mL⁻¹; in test [4] (day 5) it was 3.25e+06 mL⁻¹; in test [4] (day 8) it was 7.5e+07 mL⁻¹; in test [4] (day 11) it was 2e+08 mL⁻¹. The CFU data is reported as 50 × 10^5 CFU/ml in test [5] (day 5) and 900 × 10^5 CFU/ml in test [5] (day 10). Moreover, the entries for the “FDA-EB viability staining (% of viable green cells)” value in test [6] (day 0), in test [6] (day 5) and in test [6] (day 10) were 1%, 11.5% and 50%, respectively.
Regarding `CCCCCCCC/C=C\CCCCCCCC(=O)OC[C@H](COP(=O)(O)OC[C@H](N)C(=O)O)OC(=O)CCCCCCC/C=C\CCCCCCCC` [dioleoyl phosphatidyl-L-serine], the CFU/ml in test [1] is reported as 2×10^6 CFU/ml.
Turning to “NH2-LNATDPGAAAQFNASPVAQSYLRN-OH (H-LNATDPGAAAQFNASPVAQSYLRN-OH; listed as Mycobacterium tuberculosis) [Peptide P2, residues 48-71]”, the entries for the “MTT data (OD readings at 570 nm)” value in test [3] (day 0), in test [3] (day 5) and in test [3] (day 10) were 0.2609 OD, 0.6269 OD and 1.1567 OD, respectively. In addition, the CFU values in test [4] (day 3) was 225000 mL⁻¹; in test [4] (day 5), 500000 mL⁻¹; in test [4] (day 8) it was 1.5e+07 mL⁻¹; in test [4] (day 11) it was 7.5e+07 mL⁻¹. Moreover, the values for the CFU data in test [5] (day 5) and in test [5] (day 10) were 100 × 10^5 CFU/ml and 200 × 10^5 CFU/ml, respectively. Besides, the entries for the “FDA-EB viability staining (% of viable green cells)” value in test [6] (day 0), in test [6] (day 5) and in test [6] (day 10) were 1%, 2% and 27.5%, respectively.
On to “NH2-LRNFLAAPPPQRAAMAAQLQAV-OH (H-LRNFLAAPPPQRAAMAAQLQAV-OH; listed as Mycobacterium tuberculosis) [Peptide P3, residues 69-90]”, for which the “MTT data (OD readings at 570 nm)” value in test [3] (day 0) is on record as 0.3147 OD; in test [3] (day 5), 0.6219 OD; in test [3] (day 10) it was 1.1917 OD. For the same molecule, the CFU values in test [4] (day 3) was determined as 450000 mL⁻¹; in test [4] (day 5), 4.5e+07 mL⁻¹; in test [4] (day 8), 1.5e+08 mL⁻¹; in test [4] (day 11) it was 1.5e+08 mL⁻¹. Moreover, the CFU data in test [5] (day 5) was 40 × 10^5 CFU/ml; in test [5] (day 10), 800 × 10^5 CFU/ml. Moreover, the “FDA-EB viability staining (% of viable green cells)” value in test [6] (day 0) worked out at 2%; in test [6] (day 5), 4.5%; in test [6] (day 10), 42.5%.

The values above are taken from patent US6664096B2, “Methods for improved diagnosis and treatment of mycobacterial infections” (priority 2000, dated 2003).
